System: Male CD-1 mice
Assay: AVP induced scratching, digging and grooming behavior in mouse
Format: in vivo
Conditions: po, AVP i.c.v., 15 minutes observation
Source text: Administration of Arginine-Vasopressin (AVP) intracerebroventricularly (i.c.v.) elicits characteristic scratching, digging and grooming behavior in mice that can be measured readily and is sensitive to blockade with vasopressin antagonists (Meisenberg, Ann N Y Acad Sci. 525:257-69, 1988; Bleickardt et. al., Psychopharmacology (Berl). 202(4):711-8, 2009).
Male CD-1 mice (Charles River Germany) weighing 22-25 g upon the study in-life were used for this study. Animals were housed in groups of 4-5 per cage in standard temperature (22±1° C.) and light-controlled environment (lights on from 7 am to 8 pm), with ad libitum access to food and water. Prior to commencing any procedures to the mice, they were allowed to habituate in the vivarium for a minimum of 7 days. Anesthesia was induced in a plexiglass chamber for 2-3 min with 5% isoflurane and maintained through a snout mask with 1-2% isoflurane thereafter. A homeothermic blanket system with a rectal probe was used to monitor and maintain the animal's body temperature at 37.0° C.±1.5° C. during the operation. Anesthetized mice were placed in a stereotaxic apparatus and skin between the ears shaved and disinfected with povidone-iodine solution (Betadine). A 10-μl Hamilton syringe with 28-gauge needle was used for the i.c.v. injections. All animals receive identical AVP injections (3.689 μM) or sterile saline (0.9% sodium chloride solution) into the right lateral ventricle at the following coordinates: AP=+0.5 mm; ML=+1.0 mm; DV=−2.5 mm (approximately from bregma). The actual coordinates were calculated by the distance from the point in midline between the eyes and no skin incision was made. […]
Mice were observed and video-recorded for 15 minutes following AVP/saline administration and behaviors were measured (in seconds) and a cumulative time was calculated. […] Using this assay, balovaptan (100 and 300 mg/kg, po), JNJ-17308616 (30, 100 mg/kg, po) and Compound No. 1-83B (100, 300, 500 mg/kg, po) were evaluated for antagonist activity to AVP-induced scratching behaviors.

CC1COc2cc(Cl)ccc2N1C(=O)N1CC2(C1)CN(c1ncccn1)C2 (single isomer, unassigned) [1-83-B, (7-chloro-3-methyl-2,3-dihydro-4H-benzo[b][1,4]oxazin-4-yl)(6-(pyrimidin-2-yl)-2,6-diazaspiro[3.3]heptan-2-yl)methanone]
antagonist activity to AVP-induced scratching behaviors (300 mg/kg): effective | antagonist activity to AVP-induced scratching behaviors (500 mg/kg): effective

Source: US12152038B2, “Vasopressin receptor antagonists and products and methods related thereto” (Neumora Therapeutics, Inc., priority 2017, dated 2024)
